#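 Cultured in 96-well plates, cells were exposed to test compound for 48 hours across five concentrations. Definition used: TGI = concentration required for complete inhibition of growth.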
# Columns and labels:
# Experiment in all cases: inhibition of tumour cell growth, NCI panel, 48 h
# BT-549 breast = test system: BT-549 breast
# CAKI-1 renal = test system: CAKI-1 renal
# CCRF-CEM leukemia = test system: CCRF-CEM leukemia
# DU-145 prostate = test system: DU-145 prostate
# HS 578T breast = test system: HS 578T breast
# IGROV1 ovarian = test system: IGROV1 ovarian
# MCF7 breast = test system: MCF7 breast
# MDA-MB-231 breast = test system: MDA-MB-231 breast
# MDA-N = test system: MDA-N
# NCI-H226 lung = test system: NCI-H226 lung
# NCI-H460 lung = test system: NCI-H460 lung
# NCI-H522 lung = test system: NCI-H522 lung
# NCI/ADR-RES ovarian = test system: NCI/ADR-RES ovarian
# PC-3 prostate = test system: PC-3 prostate
# SF-295 CNS = test system: SF-295 CNS
# SK-MEL-28 melanoma = test system: SK-MEL-28 melanoma
# SK-MEL-5 melanoma = test system: SK-MEL-5 melanoma
# SNB-75 CNS = test system: SNB-75 CNS
# SR leukemia = test system: SR leukemia
# T-47D breast = test system: T-47D breast
Structure (SMILES),TGI (BT-549 breast),TGI (CAKI-1 renal),TGI (CCRF-CEM leukemia),TGI (DU-145 prostate),TGI (HS 578T breast),TGI (IGROV1 ovarian),TGI (MCF7 breast),TGI (MDA-MB-231 breast),TGI (MDA-N),TGI (NCI-H226 lung),TGI (NCI-H460 lung),TGI (NCI-H522 lung),TGI (NCI/ADR-RES ovarian),TGI (PC-3 prostate),TGI (SF-295 CNS),TGI (SK-MEL-28 melanoma),TGI (SK-MEL-5 melanoma),TGI (SNB-75 CNS),TGI (SR leukemia),TGI (T-47D breast)
c1cncc(CSc2ncnc3nc[nH]c23)c1,> 100 µM,> 100 µM,> 100 µM,> 100 µM,> 100 µM,> 100 µM,> 100 µM,> 100 µM,> 100 µM,> 100 µM,> 100 µM,> 100 µM,> 100 µM,> 100 µM,> 100 µM,> 100 µM,> 100 µM,> 100 µM,> 100 µM,> 100 µM
O=C(NCCCCCCCN1CCCCCCC1)C(C1CCCCC1)C1CCCCC1,28.7 µM,20.6 µM,46.9 µM,27.4 µM,51.5 µM,27.3 µM,19.8 µM,20.8 µM,21.8 µM,23.5 µM,23.6 µM,30.9 µM,25.1 µM,21.1 µM,24.6 µM,16.3 µM,5.51 µM,23.1 µM,6.84 µM,23 µM
C=C[C@]1(O[Si](C)(C)C)C[C@@]2(C(=O)OCC)C(O)C(=O)N3CCc4cc(OC)c(OC)cc4[C@]312 (stereo partly specified),> 100 µM,> 100 µM,> 100 µM,> 100 µM,> 100 µM,> 100 µM,> 100 µM,> 100 µM,> 100 µM,> 100 µM,> 100 µM,–,> 100 µM,> 100 µM,> 100 µM,> 100 µM,> 100 µM,> 100 µM,> 100 µM,> 100 µM
O=[N+]([O-])C(=C/c1cccc2ccccc12)/C(=C\c1cccc2ccccc12)[N+](=O)[O-],4.26 µM,4.68 µM,4.77 µM,8.77 µM,17.1 µM,4.13 µM,16.8 µM,5.14 µM,8.25 µM,13.7 µM,7.92 µM,3.63 µM,5.79 µM,> 24.3 µM,8.19 µM,4.05 µM,6.45 µM,21.8 µM,9.03 µM,10.6 µM
CCOC(=O)/C=C\C(C#N)(C#N)N=Cc1ccsc1,12.1 µM,5.33 µM,1.02 µM,30.7 µM,48.4 µM,28.2 µM,8 µM,30.9 µM,24.5 µM,34.2 µM,43.7 µM,2.83 µM,15.3 µM,22.7 µM,46.6 µM,6.89 µM,35.4 µM,27.8 µM,18.1 µM,4.49 µM
C/C(=N\NC(=S)Nc1ccc([N+](=O)[O-])cc1)c1nc2ncccc2[nH]1,2.35 µM,> 100 µM,12.4 µM,> 100 µM,6.51 µM,4.75 µM,2.38 µM,> 100 µM,> 100 µM,1.87 µM,3.31 µM,3.25 µM,5.22 µM,16.9 µM,10.2 µM,3.2 µM,5.27 µM,4.1 µM,> 100 µM,22.9 µM
O=c1cc(CNC2CC3CCC2C3)[nH]c(=O)[nH]1 (stereo unspecified),> 100 µM,> 100 µM,> 100 µM,> 100 µM,> 100 µM,> 100 µM,> 100 µM,> 100 µM,> 100 µM,–,> 100 µM,> 100 µM,> 100 µM,> 100 µM,> 100 µM,> 100 µM,> 100 µM,> 100 µM,> 100 µM,> 100 µM
CSc1c(C#N)c(S)n(-c2ccc(Cl)cc2)c(=O)c1C#N,> 100 µM,> 100 µM,> 100 µM,> 100 µM,> 100 µM,> 100 µM,> 100 µM,> 100 µM,> 100 µM,> 100 µM,> 100 µM,> 100 µM,> 100 µM,> 100 µM,–,> 100 µM,> 100 µM,> 100 µM,> 100 µM,> 100 µM
CCCC(=O)OCOC(=O)N(C)N=Nc1ccc(C(=O)OCC)cc1,76.9 µM,> 100 µM,> 100 µM,64.1 µM,85.7 µM,> 100 µM,45.5 µM,> 100 µM,> 100 µM,> 100 µM,71.8 µM,38 µM,> 100 µM,97.1 µM,53.8 µM,> 100 µM,> 100 µM,> 100 µM,> 100 µM,> 100 µM
c1n[nH]cc1C12C3C4C5C3C1C5C42 (stereo unspecified),> 100 µM,> 100 µM,> 100 µM,> 100 µM,> 100 µM,> 100 µM,> 100 µM,> 100 µM,> 100 µM,> 100 µM,–,> 100 µM,> 100 µM,> 100 µM,> 100 µM,> 100 µM,> 100 µM,> 100 µM,> 100 µM,> 100 µM
C[C@H](NC(=O)CNC(=O)CCCCCC(=O)NCC(=O)N[C@@H](C)C(=O)OCc1ccccc1)C(=O)OCc1ccccc1,> 100 µM,> 100 µM,> 100 µM,> 100 µM,> 100 µM,> 100 µM,> 100 µM,> 100 µM,> 100 µM,> 100 µM,–,–,> 100 µM,> 100 µM,> 100 µM,> 100 µM,–,> 100 µM,> 100 µM,> 100 µM
c1ccc(COC2C3COC(O3)C(OCc3ccccc3)C2OCc2ccccc2)cc1 (stereo unspecified),> 100 µM,> 100 µM,40.6 µM,> 100 µM,> 100 µM,> 100 µM,> 100 µM,> 100 µM,> 100 µM,> 100 µM,> 100 µM,62.6 µM,> 100 µM,> 100 µM,> 100 µM,–,> 100 µM,> 100 µM,25.4 µM,> 100 µM
FC(F)(F)c1cccnc1Sc1nc2ccccc2s1,> 100 µM,> 100 µM,> 100 µM,> 100 µM,> 100 µM,> 100 µM,> 100 µM,> 100 µM,> 100 µM,> 100 µM,> 100 µM,> 100 µM,> 100 µM,> 100 µM,> 100 µM,> 100 µM,> 100 µM,> 100 µM,> 100 µM,> 100 µM
C=CCNC(=O)CN(CC(=O)O)C1CCCCC1N(CC(=O)O)CC(=O)O (stereo unspecified),> 100 µM,> 100 µM,> 100 µM,> 100 µM,> 100 µM,> 100 µM,> 100 µM,> 100 µM,> 100 µM,> 100 µM,> 100 µM,> 100 µM,> 100 µM,> 100 µM,> 100 µM,> 100 µM,> 100 µM,> 100 µM,> 100 µM,> 100 µM
O=c1[nH]c(=O)n(C2C(CO)OC(CO)C2O)cc1F (stereo unspecified),> 100 µM,> 100 µM,> 100 µM,> 100 µM,> 100 µM,> 100 µM,> 100 µM,> 100 µM,> 100 µM,> 100 µM,> 100 µM,> 100 µM,> 100 µM,> 100 µM,> 100 µM,> 100 µM,> 100 µM,> 100 µM,> 100 µM,> 100 µM
CCCCN(C)C(=O)C1=C(C)NC(C)=C(C(=O)N(C)CCCC)C1,> 100 µM,> 100 µM,> 100 µM,> 100 µM,> 100 µM,> 100 µM,> 100 µM,> 100 µM,> 100 µM,> 100 µM,> 100 µM,> 100 µM,> 100 µM,> 100 µM,> 100 µM,> 100 µM,> 100 µM,> 100 µM,> 100 µM,> 100 µM
CN1CCC/C1=C1/C(=O)N(c2ccccc2)N=C1c1ccc[nH]1,> 100 µM,> 100 µM,> 100 µM,> 100 µM,> 100 µM,> 100 µM,> 100 µM,> 100 µM,> 100 µM,> 100 µM,> 100 µM,> 100 µM,> 100 µM,> 100 µM,> 100 µM,> 100 µM,> 100 µM,> 100 µM,> 100 µM,> 100 µM
Cc1ccc(S(=O)(=O)N2CCN(S(=O)(=O)c3ccc(C)cc3)CCN(S(=O)(=O)c3ccc(C)cc3)Cc3cc(Br)c(Br)cc3CN(S(=O)(=O)c3ccc(C)cc3)CC2)cc1,> 100 µM,> 100 µM,> 100 µM,> 100 µM,> 100 µM,> 100 µM,> 100 µM,71.1 µM,> 100 µM,> 100 µM,> 100 µM,> 100 µM,> 100 µM,> 100 µM,> 100 µM,> 100 µM,> 100 µM,> 100 µM,> 100 µM,> 100 µM
Nc1c(Cl)cc(-c2nc3ccccc3s2)cc1Cl,> 100 µM,–,> 100 µM,> 100 µM,> 100 µM,> 100 µM,> 100 µM,> 100 µM,> 100 µM,> 100 µM,> 100 µM,> 100 µM,> 100 µM,> 100 µM,> 100 µM,> 100 µM,> 100 µM,> 100 µM,> 100 µM,> 100 µM

# Source: PubChem BioAssay (NCI)
